From ChEMBL document CHEMBL1201862, “PubChem BioAssay data set” (2004)
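The compound was tested at five concentrations on cells cultured in 96-well plates, with a 48-hour exposure period. GI50 marks 50% less growth.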 Calls of active or inactive are those of the source. Cut-off read from the data, not from the text of the source: active = GI50 up to about 1.1 µM and inactive = higher.

How the values were obtained:
Assay in all cases: NCI-60 cell line screen, 48 h
786-0 = system: 786-0
CCRF-CEM = system: CCRF-CEM
DU-145 = system: DU-145
EKVX = system: EKVX
IGROV-1 = system: IGROV-1
K562 = system: K562
KM12 = system: KM12
MDA-MB-231 = system: MDA-MB-231
MDA-MB-435 = system: MDA-MB-435
MDA-N = system: MDA-N
Malme-3M = system: Malme-3M
NCI-H226 = system: NCI-H226
NCI/ADR-RES = system: NCI/ADR-RES
RPMI-8226 = system: RPMI-8226
SN12C = system: SN12C
UACC-257 = system: UACC-257
UACC-62 = system: UACC-62
HL-60 = system: HL-60
SF-539 = system: SF-539
BT-549 = system: BT-549

SMILES | GI50 (786-0) | GI50 (CCRF-CEM) | GI50 (DU-145) | GI50 (EKVX) | GI50 (IGROV-1) | GI50 (K562) | GI50 (KM12) | GI50 (MDA-MB-231) | GI50 (MDA-MB-435) | GI50 (MDA-N) | GI50 (Malme-3M) | GI50 (NCI-H226) | GI50 (NCI/ADR-RES) | GI50 (RPMI-8226) | GI50 (SN12C) | GI50 (UACC-257) | GI50 (UACC-62) | GI50 (HL-60) | GI50 (SF-539) | GI50 (BT-549)
COc1cc2oc(=O)cc(C)c2c(OC)c1OC | > 100 µM (inactive) | > 100 µM (inactive) | > 100 µM (inactive) | 87.9 µM (inactive) | > 100 µM (inactive) | > 100 µM (inactive) | > 100 µM (inactive) | > 100 µM (inactive) | > 100 µM (inactive) | > 100 µM (inactive) | > 100 µM (inactive) | > 100 µM (inactive) | > 100 µM (inactive) | > 100 µM (inactive) | > 100 µM (inactive) | > 100 µM (inactive) | > 100 µM (inactive) |  |  | 
CCCCN(CCCC)CCC(O)c1cc2c(Cl)cc(Cl)cc2c2cc(C(F)(F)F)ccc12 (stereo not given) | 12.9 µM (inactive) | 11.2 µM (inactive) | 10.3 µM (inactive) | 14.5 µM (inactive) | 12.7 µM (inactive) | 6.73 µM (inactive) |  | 2.52 µM (inactive) | 12.6 µM (inactive) | 12.7 µM (inactive) | 16.4 µM (inactive) |  | 12.1 µM (inactive) | 8.36 µM (inactive) | 5.05 µM (inactive) | 14.5 µM (inactive) | 15 µM (inactive) | 5.9 µM (inactive) | 9.4 µM (inactive) | 
COc1ncnc2c(NC3OC(CO)C(O)C3O)ncnc12 (stereo not given) | 0.537 µM (active) | < 0.0209 µM (active) | 0.407 µM (active) | 0.596 µM (active) | 0.28 µM (active) | 0.0306 µM (active) | 0.458 µM (active) | 0.149 µM (active) | 0.578 µM (active) | 0.274 µM (active) | 2.74 µM (inactive) | 0.335 µM (active) | 0.417 µM (active) | 0.371 µM (active) | 0.428 µM (active) | 1.6 µM (inactive) | 0.299 µM (active) | 0.0414 µM (active) | 0.246 µM (active) | 
CS(=O)(=O)N1CC(CCl)c2ccc(NCCN)cc21 (stereo not given) | 18.7 µM (inactive) | 79.8 µM (inactive) | > 100 µM (inactive) | 47.9 µM (inactive) | 12.5 µM (inactive) | > 100 µM (inactive) | > 100 µM (inactive) | 33.3 µM (inactive) | > 100 µM (inactive) | > 100 µM (inactive) | > 100 µM (inactive) | > 100 µM (inactive) | > 100 µM (inactive) | > 100 µM (inactive) | > 100 µM (inactive) | > 100 µM (inactive) |  | > 100 µM (inactive) | 72.6 µM (inactive) | 
CC(=O)/C=C1/C(=O)C(CC(C)C)=C1CC(C)C | > 100 µM (inactive) | 53.8 µM (inactive) | > 100 µM (inactive) | > 100 µM (inactive) | > 100 µM (inactive) |  | > 100 µM (inactive) | > 100 µM (inactive) | > 100 µM (inactive) | > 100 µM (inactive) | > 100 µM (inactive) | > 100 µM (inactive) | > 100 µM (inactive) |  | > 100 µM (inactive) | > 100 µM (inactive) | > 100 µM (inactive) | > 100 µM (inactive) | > 100 µM (inactive) | 
COC(=O)CCCC(=O)C1=NN(c2ccc(Cl)cc2)Cc2ccccc2N1 | 17.6 µM (inactive) | > 100 µM (inactive) | > 100 µM (inactive) | 70.6 µM (inactive) | > 100 µM (inactive) | > 100 µM (inactive) | > 100 µM (inactive) | > 100 µM (inactive) | > 100 µM (inactive) |  |  | 51.4 µM (inactive) | 79.4 µM (inactive) | > 100 µM (inactive) | > 100 µM (inactive) | > 100 µM (inactive) | 27.3 µM (inactive) |  | > 100 µM (inactive) | > 100 µM (inactive)
N#C/C(C(=O)Nc1ccc(Cl)cc1)=C(/N)N1CCCC1 | > 100 µM (inactive) | > 100 µM (inactive) | > 100 µM (inactive) | > 100 µM (inactive) | > 100 µM (inactive) | > 100 µM (inactive) | > 100 µM (inactive) |  | > 100 µM (inactive) | > 100 µM (inactive) |  | > 100 µM (inactive) | > 100 µM (inactive) | > 100 µM (inactive) | > 100 µM (inactive) | > 100 µM (inactive) | > 100 µM (inactive) | 0.635 µM (active) | > 100 µM (inactive) | > 100 µM (inactive)
Cc1cn(CC2=NCC(O)CN2)c(=O)[nH]c1=O (stereo not given) | > 100 µM (inactive) | > 100 µM (inactive) | > 100 µM (inactive) | > 100 µM (inactive) | > 100 µM (inactive) | > 100 µM (inactive) | > 100 µM (inactive) | > 100 µM (inactive) | > 100 µM (inactive) | > 100 µM (inactive) | > 100 µM (inactive) | > 100 µM (inactive) | > 100 µM (inactive) | > 100 µM (inactive) | > 100 µM (inactive) | > 100 µM (inactive) | > 100 µM (inactive) | > 100 µM (inactive) | > 100 µM (inactive) | 
N#Cc1nc(C2=C(Cl)c3ccccc3OC2)[nH]c1C#N | 32.1 µM (inactive) | 11.5 µM (inactive) |  | 31.5 µM (inactive) | 30.1 µM (inactive) | 22.2 µM (inactive) | 26.1 µM (inactive) |  |  |  |  |  | 41.1 µM (inactive) | 24.4 µM (inactive) | 27.5 µM (inactive) |  | 22.9 µM (inactive) | 22.7 µM (inactive) | 17.1 µM (inactive) | 18.9 µM (inactive)
O=C(CSc1nc2ccc(I)cc2c(=O)n1Cc1ccccc1)NNC(=S)Nc1ccccc1 | 7.4 µM (inactive) | 6.14 µM (inactive) | > 100 µM (inactive) | 1.73 µM (inactive) | 2.91 µM (inactive) | 11.3 µM (inactive) | 34.4 µM (inactive) |  | 41.3 µM (inactive) | 30.3 µM (inactive) |  | 6.53 µM (inactive) | 77.6 µM (inactive) | 12.6 µM (inactive) | 3.9 µM (inactive) | 14.7 µM (inactive) | 33.4 µM (inactive) | 25.5 µM (inactive) |  | 80.5 µM (inactive)
CN(C)CC1CCCCCC(Br)C1=O (stereo not given) | 2.25 µM (inactive) | 0.352 µM (active) | 12.1 µM (inactive) | 15.1 µM (inactive) | 28.2 µM (inactive) | 2.02 µM (inactive) | 18.4 µM (inactive) | 16.1 µM (inactive) | 16 µM (inactive) |  | 6.5 µM (inactive) | 20.7 µM (inactive) | 13.9 µM (inactive) | 0.61 µM (active) | 16.8 µM (inactive) | 9.93 µM (inactive) | 18.7 µM (inactive) | 6.12 µM (inactive) | 17.3 µM (inactive) | 11.7 µM (inactive)
CN(C)c1cccc2c1C(=O)C=CC21c2ccc(N(C)C)c3c(N(C)C)ccc(c23)C(c2ccccc2)C1c1ccccc1 (stereo not given) | 9.44 µM (inactive) | 4.86 µM (inactive) | 42.5 µM (inactive) | 22.2 µM (inactive) | 12 µM (inactive) | 18.3 µM (inactive) | 14.3 µM (inactive) | 8.75 µM (inactive) | 15 µM (inactive) | 16.4 µM (inactive) | 18 µM (inactive) | 12.7 µM (inactive) | 22.6 µM (inactive) | 15.9 µM (inactive) | 10.8 µM (inactive) | 12.6 µM (inactive) | 20.1 µM (inactive) | 3.34 µM (inactive) | 12.1 µM (inactive) | 
Cc1ccc2c(c1)C(=O)C1(C2)Cc2cccc(C)c2C1=O (stereo not given) | > 100 µM (inactive) | > 100 µM (inactive) | > 100 µM (inactive) | > 100 µM (inactive) | > 100 µM (inactive) | > 100 µM (inactive) | > 100 µM (inactive) | > 100 µM (inactive) | > 100 µM (inactive) | > 100 µM (inactive) | > 100 µM (inactive) | > 100 µM (inactive) | > 100 µM (inactive) | > 100 µM (inactive) | > 100 µM (inactive) | > 100 µM (inactive) | 77.3 µM (inactive) | > 100 µM (inactive) | > 100 µM (inactive) | 
O=C(Nc1ccc(S(=O)(=O)/N=c2\ncccn2C(=O)C(C(F)(F)F)C(F)(F)F)cc1)C(C(F)(F)F)C(F)(F)F | > 100 µM (inactive) | > 100 µM (inactive) | > 100 µM (inactive) | > 100 µM (inactive) | > 100 µM (inactive) | > 100 µM (inactive) | > 100 µM (inactive) | > 100 µM (inactive) | > 100 µM (inactive) | > 100 µM (inactive) | 49.2 µM (inactive) | > 100 µM (inactive) | > 100 µM (inactive) | > 100 µM (inactive) | > 100 µM (inactive) | > 100 µM (inactive) | > 100 µM (inactive) | > 100 µM (inactive) | > 100 µM (inactive) | 
Cc1nc(=O)c2cc(CN(C)c3ccc(C(=O)N[C@@H](CCC(=O)O)C(=O)O)s3)ccc2[nH]1 [RALTITREXED] | 0.0438 µM (active) |  | 0.273 µM (active) | > 100 µM (inactive) | > 100 µM (inactive) | 0.0104 µM (active) | > 100 µM (inactive) | > 100 µM (inactive) | > 100 µM (inactive) |  | 0.303 µM (active) | > 100 µM (inactive) |  | 0.0834 µM (active) | 0.65 µM (active) | > 100 µM (inactive) | 0.193 µM (active) | 5.92 µM (inactive) | 84.7 µM (inactive) | 71.4 µM (inactive)
